Assay results taken from US7742877B1, “Methods, apparatus and computer program products for formulating culture media” (Becton, Dickinson & Company, priority 1999, dated 2010).

Assays:
[1] = test system: bacterial cells genetically engineered to produce a heterologous protein of interest; assay: Protein production by bacterial cells grown in culture medium containing a test peptide (QSAR example, exemplary data); assay type: cell-based; settings: peptide included in culture medium of bacterial cells; exemplary (hypothetical) data
Excerpt: The present invention may be used to identify a peptide to include as a component of a culture medium. The culture medium may be used to culture bacterial cells genetically engineered to produce a heterologous protein of interest. Accordingly, it would be desirable to identify a peptide which when included in a culture medium will enhance protein production by bacterial cells grown in the culture medium (i.e., to satisfy a test requirement).
In this example, eight test peptides are selected from a tetrapeptide library: Asp-Lys-Ala-His (SEQ. ID. NO:23), Asp-Trp-Pro-Ala (SEQ. ID. NO:24), Glu-Ser-Met-His (SEQ. ID. NO:25), Gly-Val-Asn-Glu (SEQ. ID. NO:26), His-Glu-Asp-Val (SEQ. ID. NO:27), Glu-Thr-Gly-Ser (SEQ. ID. NO:28), His-Tyr-Gly-Val (SEQ. ID. NO:29, and Asp-Phe-Gly-Val (SEQ. ID. NO:30); Table 3). The test peptides may be selected from the library by any means known in the art. The values for three parameters (molecular weight, total charge, and mlogp, i.e., hydrophobicity) may be determined for each of the eight peptides. The indicia of the property, in this example a particular biological activity (i.e., protein production), may be determined for the eight peptides as well.

[2] = test system: mammalian hybridoma cells producing and secreting antibodies; assay: Antibody production by hybridoma cells cultured in medium containing a test peptide (nearest neighbor example, model data); assay type: cell-based; settings: for Biol. Act. (antibody production): training set peptide added to hybridoma culture medium, model data; for Observed Activity (antibody production): candidate peptides, (hypothetical) biological activities
Excerpt: One particular, and preferred, method of identifying compounds based on a distance function is nearest neighbor analysis. This method can be illustrated using the following simplified example with model data.
According to this illustrative example, the present invention can be used to identify a peptide as a culture medium component, e.g., for mammalian hybridoma cells producing and secreting antibodies. In particular, it is desirable to identify peptides, which when added to culture medium, will promote antibody production by hybridoma cells at a level greater than a test requirement. Four test peptides (Asp-Lys-Ala-His (SEQ. ID NO:23), Asp-Trp-Pro-Ala (SEQ. ID NO:24), Glu-Ser-Met-His (SEQ. ID NO:25), Gly-Val-Asn-Glu (SEQ. ID NO:26); i.e., a training set) may be selected from a peptide library as described above with respect to the QSAR example. Values to describe the various parameters of the peptides, for example, hydrophobicity (i.e., mlogp), molecular weight, and total charge may be calculated for each peptide (Table 5). Each peptide may be added to hybridoma culture medium and antibody production (i.e., biological activity) may be measured for the cells cultured in each culture medium (values shown in Table 5).
The peptides in the candidate set will then be assigned predicted indicia of the property based the closest peptide in the training set (Table 9).

Substance | Biol. Act. (protein production) [1] | Biol. Act. (antibody production) [2] | Observed Activity (antibody production) [2]
Asp-Lys-Ala-His (DKAH) | 15.0 | 15.0 | –
Asp-Phe-Gly-Val (DFGV) | 22.0 | – | 22.0
Asp-Trp-Pro-Ala (DWPA) | 25.0 | 25.0 | –
Glu-Ser-Met-His (ESMH) | 19.3 | 19.3 | –
Glu-Thr-Gly-Ser (ETGS) | 10.2 | – | 10.2
Gly-Val-Asn-Glu (GVNE) | 14.4 | 14.4 | –
His-Glu-Asp-Val (HEDV) | 18.5 | – | 18.5
His-Tyr-Gly-Val (HYGV) | 23.6 | – | 23.6
